Reference: patent publication US6368852B1, “Peptide capable of inducing immune response to human gastric cancer and agent for preventing or treating human gastric cancer, containing the peptide” (Ajinomoto Co., Inc., priority 1995, dated 2002)
Where no end group is shown, it is not given here.

What was measured:
[1] = system: Tc-HST-2 cells with HST-2 cells expressing HLA-A31 antigen as target cells; assay: CTL assay using a TNF-releasing method (Wehi164/MTT); type: cell-based, human; settings: peptide final concentration 10 μM, 1 μM or 0.1 μM; HST-2 target cells; target cells to CTL 1:100; 12 hours
Description: That is, in the TNF-releasing method, the HLA-A31-positive HST-2 or KG-1 cell is mixed with the peptide of the present invention, and the mixture is incubated at 37° C. for 3 hours. Then, Tc-HST-2 cells are added thereto, and the resulting mixture is further incubated for 12 hours. The activity of any TNF released in the supernatant is measured to detect the CTL inducibility.
The TNF activity can be measured by the method described in Immunogenetics, vol. 35, p. 145 (1992).
That is, TNF-sensitive Wehi164 cells are mixed with a test sample, and the mixture is incubated for 24 hours. Then, an MTT [3-(4,5-dimethylthiazol-2-yl)-2,5-diphenyl tetrazolium bromide] solution is added to the culture, and the resulting mixture is further incubated for 3 hours. After any formazan converted within mitochondria is dissolved in acid propanol, the amount thereof is measured in terms of an absorbance at OD570 to detect the TNF activity.
That is, 1×10^4 HST-2 cells expressing HLA-A31 antigen were suspended as target cells in 100 μl of the solution, and 5 μl of each of the above-mentioned four synthetic peptides were added thereto such that the final concentration reached 10 μM, 1 μM or 0.1 μM. The mixture was further incubated under the same conditions for 3 hours to bind the HLA-bound peptide to the HLA molecule. Subsequently, Tc-HST-2 cells (1×10^6 cells/ml) were added thereto in an amount of 100 μl, and the resulting mixture was further incubated for 12 hours under the same conditions.
After 12 hours of incubation, 30 μl of the supernatant formed was collected, and the TNF activity released in the supernatant was measured to detect the CTL inducibility. The TNF activity was measured by the following method.
That is, 7×10^4 Wehi164 cells which are TNF-sensitive cells were suspended in 120 μl of the solution, and 30 μl of the above-obtained supernatant were added thereto. The mixture was incubated for 24 hours. […] Then, the absorbance was measured at a wavelength of 570 nm to measure the TNF activity.

[2] = system: Tc-HST-2 cells with HST-2 or KG-1 cells expressing HLA-A31 antigen as target cells; assay: CTL inducibility by the 51Cr-releasing method (specific cytotoxicity of Tc-HST-2); type: cell-based, human; settings: HLA-bound peptide from HST-2 separated by reversed-phase HPLC; target cells to CTL 1:100; 12 hours incubation
Description: That is, HLA-A31-positive HST-2 or KG-1 cells are radio-labeled with sodium chromate containing ^51Cr, and are then mixed with the HLA-bound peptide separated through reversed phase chromatography. The mixture is incubated at 37° C. for 3 hours, and Tc-HST-2 is then added thereto. The resulting mixture is further incubated for 12 hours. The CTL inducibility can be detected by measuring the radio-activity of ^51Cr released in the supernatant.
The CTL inducibility of the HPLC elution fractions against Tc-HST-2 cells was measured as follows. […]
Subsequently, Tc-HST-2 cells (2.5×10^5 cells/ml) were added thereto in an amount of 100 μl, and the mixture was incubated under the same conditions for 12 hours. After 12 hours of incubation, 100 μl of the supernatant formed were collected, and the radioactivity of ^51Cr released in this supernatant was measured using a γ-counter to measure the CTL activity.
The specific cytotoxicity was calculated using the following formula. […]
wherein the minimum release value indicates a measured value of a well filled with target cells alone and a value of ^51Cr naturally released from target cells, and the maximum release value indicates a release value when the cells are destroyed by adding a surfactant, 1% Triton x-100, to target cells.

Substance	CTL inducibility of Tc-HST-2 (TNF activity released in the supernatant) [1]	CTL inducibility of Tc-HST-2 (specific cytotoxicity, 51Cr release) [2]
Peptide 1-7: peptide containing 7 amino acids starting from the N-terminus of Synthetic Peptide 1 (SEQ ID NO: 4) (YSWMDIS)	no CTL inducibility	
YSWMDISC [Peptide 1-8]	no CTL inducibility	
YSWMDISCW [Peptide 1-9]	CTL inducibility of TC-HST-2 was identified	
YSWMDISCWI [Peptide 1, Tyr Ser Trp Met Asp Ile Ser cys Trp Ile]		exhibiting the CTL inducibility
